Data: article PMC3654564 (ACS Medicinal Chemistry Letters, 2013)
Where a chain is given by its changes, count along the chain named.

How the values were obtained:
mY355F (mCOX-2 mutant) = target: T1, mY355F (mCOX-2 mutant) (Mus musculus, UniProt Q05769, Y341F); experiment: COX inhibition screening assay, mCOX-2 Y355F mutant; format: biochemical; conditions: inhibitor concentrations of up to 100 μM
T1 sequence (Q05769 18-604 Y341F): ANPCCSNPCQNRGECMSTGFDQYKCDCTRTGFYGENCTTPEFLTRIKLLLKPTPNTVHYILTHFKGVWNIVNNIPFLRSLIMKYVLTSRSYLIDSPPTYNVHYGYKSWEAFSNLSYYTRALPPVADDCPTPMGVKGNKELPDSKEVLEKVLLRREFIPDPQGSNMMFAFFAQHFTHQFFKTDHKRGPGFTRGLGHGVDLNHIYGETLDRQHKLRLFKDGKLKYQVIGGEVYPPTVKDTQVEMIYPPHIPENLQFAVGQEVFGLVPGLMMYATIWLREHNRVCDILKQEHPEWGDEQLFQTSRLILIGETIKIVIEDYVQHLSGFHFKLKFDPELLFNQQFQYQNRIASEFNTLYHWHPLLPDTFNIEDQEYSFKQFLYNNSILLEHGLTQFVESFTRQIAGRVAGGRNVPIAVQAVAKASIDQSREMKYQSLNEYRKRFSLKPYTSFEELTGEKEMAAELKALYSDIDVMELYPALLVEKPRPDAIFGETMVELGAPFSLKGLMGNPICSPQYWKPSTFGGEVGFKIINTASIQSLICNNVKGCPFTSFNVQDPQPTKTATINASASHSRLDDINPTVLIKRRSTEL

oCOX-1 = target: T2, oCOX-1 (Ovis aries, UniProt P05979); experiment: COX inhibition screening assay; format: biochemical, ovine
T2 sequence (P05979 25-600): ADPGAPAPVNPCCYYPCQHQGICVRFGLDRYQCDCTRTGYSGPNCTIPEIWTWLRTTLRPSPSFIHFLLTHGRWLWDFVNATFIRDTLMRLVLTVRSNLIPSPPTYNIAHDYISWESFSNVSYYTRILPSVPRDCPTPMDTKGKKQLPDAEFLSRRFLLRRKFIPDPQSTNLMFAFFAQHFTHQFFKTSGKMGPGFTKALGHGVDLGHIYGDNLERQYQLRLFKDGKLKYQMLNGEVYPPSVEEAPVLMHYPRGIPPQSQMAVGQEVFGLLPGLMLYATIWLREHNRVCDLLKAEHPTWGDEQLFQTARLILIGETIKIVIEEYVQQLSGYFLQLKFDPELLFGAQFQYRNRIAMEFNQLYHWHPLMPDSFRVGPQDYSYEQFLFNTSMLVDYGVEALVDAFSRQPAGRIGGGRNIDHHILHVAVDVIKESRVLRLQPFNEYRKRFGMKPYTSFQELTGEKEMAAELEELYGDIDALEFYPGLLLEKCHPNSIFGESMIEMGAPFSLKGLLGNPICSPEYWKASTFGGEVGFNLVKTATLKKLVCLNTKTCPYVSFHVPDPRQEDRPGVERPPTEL

[1] = Gastrointestinal tolerability observation in rats; format: in vivo, rat
hCOX-2 = target: T3, hCOX-2 (Homo sapiens, UniProt P35354); experiment: Time-dependent COX inhibition assay; format: biochemical
T3 sequence (P35354 18-604): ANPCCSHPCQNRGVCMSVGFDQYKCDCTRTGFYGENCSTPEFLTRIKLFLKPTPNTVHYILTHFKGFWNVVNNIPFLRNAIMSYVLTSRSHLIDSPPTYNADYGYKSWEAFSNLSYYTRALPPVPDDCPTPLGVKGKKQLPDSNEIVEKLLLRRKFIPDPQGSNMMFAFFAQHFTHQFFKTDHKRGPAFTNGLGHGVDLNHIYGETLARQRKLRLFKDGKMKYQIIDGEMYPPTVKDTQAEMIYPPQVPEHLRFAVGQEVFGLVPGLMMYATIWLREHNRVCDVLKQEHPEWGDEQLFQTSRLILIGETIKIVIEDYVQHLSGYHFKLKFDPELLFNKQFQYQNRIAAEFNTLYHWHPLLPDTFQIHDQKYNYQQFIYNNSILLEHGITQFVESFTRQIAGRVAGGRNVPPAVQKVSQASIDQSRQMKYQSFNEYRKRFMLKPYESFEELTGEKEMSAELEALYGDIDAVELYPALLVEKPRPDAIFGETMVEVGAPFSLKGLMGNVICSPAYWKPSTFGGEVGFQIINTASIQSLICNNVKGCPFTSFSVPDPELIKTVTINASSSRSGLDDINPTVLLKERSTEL

mR120A (mCOX-2 mutant) = target: T4, mR120A (mCOX-2 mutant) (Mus musculus, UniProt Q05769, R106A); experiment: COX inhibition screening assay, mCOX-2 R120A mutant; format: biochemical; conditions: inhibitor concentrations of up to 100 μM
T4 sequence (Q05769 18-604 R106A): T1 sequence (Q05769 18-604 Y341F) with R89A, F324Y

mV523I (mCOX-2 mutant) = target: T5, mV523I (mCOX-2 mutant) (Mus musculus, UniProt Q05769, V509I); experiment: COX inhibition screening assay, mCOX-2 V523I mutant; format: biochemical
T5 sequence (Q05769 18-604 V509I): T1 sequence (Q05769 18-604 Y341F) with F324Y, V492I

[2] = test system: carrageenan-induced rat paw edema; experiment: Carrageenan-induced rat footpad edema model; format: in vivo; conditions: oral in corn oil 1 h postcarrageenan, footpad volume 2 h later
COX-2 = conditions: also, to some extent, COX-1; cited from earlier work
[3] = Sprague–Dawley rats, doses higher than 2 mg/kg; ref previous studies; cited from earlier work

SMILES | inhibition of Tyr355 to Phe mutant of COX-2 (mY355F (mCOX-2 mutant)) | IC50 (oCOX-1) | effect on oCOX-1 (oCOX-1; up to very high inhibitor concentrations (100 μM)) | gastrointestinal bleeding ([1]; rat, oral, tested up to 10 mg/kg) | overnight observation after testing ([1]; treated rats maintained overnight) | KI for initial binding to COX-2, fold lower than for indomethacin (hCOX-2) | Ki (hCOX-2) | k2, fold slower than for indomethacin (hCOX-2) | k2/KI, fold greater than for indomethacin (hCOX-2) | forward rate constant (k2) (hCOX-2; wild-type hCOX-2) | inhibition of Arg-120 to Ala mutant of COX-2 (mR120A (mCOX-2 mutant)) | IC50 (mV523I (mCOX-2 mutant)) | EC50, anti-inflammatory activity [2] | COX-2 inhibition (type) (COX-2) | gastric toxicity at higher doses [3]
COc1ccc2c(c1)c(CC(=O)O)c(C(F)(F)F)n2C(=O)c1ccc(Cl)cc1 [CF3–indomethacin, 2-(1-(4-chlorobenzoyl)-5-methoxy-2′-trifluoromethyl-1H-indol-3-yl)ethanoic acid] | unable to inhibit | > 100 µM | no appreciable effect | no evidence of gastrointestinal bleeding | no passage of blood from the gastrointestinal tract was observed | approximately 9 fold | 1.5 ± 0.26 µM | 3 fold | approximately 3 fold | 0.020 ± 0.001 s^–1 | unable to inhibit | > 4 µM | 1.7 mg/kg | – | –
COc1ccc2c(c1)c(CC(=O)O)cn2C(=O)c1ccc(Cl)cc1 [des-methyl derivative] | – | – | – | – | – | – | – | – | – | – | – | – | – | weak, reversible inhibitor | –
COc1ccc2c(c1)c(CC(=O)O)c(C)n2C(=O)c1ccc(Cl)cc1 [indomethacin, 2-(1-(4-chlorobenzoyl)-5-methoxy-2′-methyl-1H-indol-3-yl)ethanoic acid, reference compound] | – | – | – | – | – | – | – | – | – | – | – | – | 1.0 mg/kg | – | substantial gastric erosion and bleeding
